Measured values published in ChEMBL document CHEMBL1135938, “Synthesis of N-[4-[1-ethyl-2-(2,4-diaminofuro[2,3-d]pyrimidin-5-yl)ethyl]benzoyl]-L-glutamic acid as an antifolate” (J Med Chem, 2002).

Experiments:
[1] = Inhibition of growth of R30dm (n=2); type: functional, Homo sapiens
R1 [2] = test: Inhibition of growth of R1 (n=2); settings: Homo sapiens
R2 [3] = test: Inhibition of growth of R2 (n=2); type: functional, cell-based; settings: Homo sapiens
RPMI-8226 = test: Inhibition of growth of RPMI-8226 leukemia cell line; type: functional; settings: Homo sapiens
R2 [4] = test: Inhibition of growth of R2(n=2); type: functional, cell-based; settings: Homo sapiens
Dihydrofolate reductase [5] = target: Dihydrofolate reductase (Homo sapiens, UniProt P00374)
Description: Inhibition of rh dihydrofolate reductase (DHFR)

HL-60 = test: Inhibition of growth of HL-60 leukemia cell line; type: functional; settings: Homo sapiens
MDA-MB-435 = test: Inhibition of growth of MDA-MB-435 breast cancer cell line; type: functional; settings: Homo sapiens
CCRF-CEM [6] = test: Inhibition of growth of CCRF-CEM leukemia cell line; type: functional; settings: Homo sapiens
SW-620 = test: Inhibition of growth of SW -620 colon cancer cell line; type: functional; settings: Homo sapiens
OVCAR-5 = test: Inhibition of growth of OVCAR-5 ovarian cancer cell line; type: functional; settings: Homo sapiens
CCRF-CEM [7] = test: Inhibition of growth of CCRF-CEM human leukemia cells (n=2); type: functional, cell-based
HCT-15 = test: Inhibition of growth of HCT -15 colon cancer cell line; type: functional; settings: Homo sapiens
SF-539 = test: Inhibition of growth of SF-539 CNS cancer cell line; type: functional; settings: Homo sapiens
UO-31 = test: Inhibition of growth of UO-31 renal cancer cell line; type: functional; settings: Homo sapiens
CAKI-1 = test: Inhibition of growth of CAKI-1 renal cancer cell line; type: functional; settings: Homo sapiens
[8] = target: Bifunctional dihydrofolate reductase-thymidylate synthase (Toxoplasma gondii, UniProt Q07422); test: Inhibition of Toxoplasma gondii dihydrofolate reductase (DHFR)
R1 [9] = test: Inhibition of growth of R1(n=2); settings: Homo sapiens
Thymidylate synthase [10] = target: Thymidylate synthase (Escherichia coli, UniProt C3SWJ7); test: Inhibition of Escherichia coli thymidylate synthase (TS)
HT-29 = test: Inhibition of growth of HT 29colon cancer cell line; type: functional; settings: Homo sapiens
SF-268 = test: Inhibition of growth of SF-268 CNS cancer cell line; type: functional; settings: Homo sapiens
U-251 = test: Inhibition of growth of U251 CNS cancer cell line; type: functional; settings: Homo sapiens
SK-MEL-5 = test: Inhibition of growth of SK-MEL5 melanoma cell line; type: functional; settings: Homo sapiens
Thymidylate synthase [11] = target: Thymidylate synthase (Homo sapiens, UniProt P04818); test: Inhibition of recombinant human thymidylate synthase (TS)
TK-10 = test: Inhibition of growth of TK-10 renal cancer cell line; type: functional; settings: Homo sapiens
LOX IMVI = test: Inhibition of growth of LOX IMVI melanoma cell line; type: functional; settings: Homo sapiens
K562 = test: Inhibition of growth of K-562 leukemia cell line; type: functional; settings: Homo sapiens
MDA-N = test: Inhibition of growth of MDA-Nbreast cancer cell line; type: functional; settings: Homo sapiens
MCF7 = test: Inhibition of growth of MCF-7 breast cancer cell line; type: functional; settings: Homo sapiens
A549 = test: Inhibition of growth of A549/ATCC nonsmall cell lung cancer cell line; type: functional; settings: Homo sapiens
[12] = Inhibition of growth of IGROV1 ovarian cancer cell line; type: functional; settings: Homo sapiens, IGROV-1
NCI-H522 = test: Inhibition of growth of NCI- H522 nonsmall cell lung cancer cell line; type: functional; settings: Homo sapiens
ACHN = test: Inhibition of growth of ACHN renal cancer cell line; type: functional; settings: Homo sapiens
SF-295 = test: Inhibition of growth of SF-295 CNS cancer cell line; type: functional; settings: Homo sapiens
SR = test: Inhibition of growth of SR leukemia cell line; type: functional; settings: Homo sapiens
NCI-H460 = test: Inhibition of growth of NCI-H460 nonsmall cell lung cancer cell line; type: functional; settings: Homo sapiens
Dihydrofolate reductase [13] = target: Dihydrofolate reductase (Escherichia coli, UniProt P0ABQ4); test: Inhibition of Escherichia coli dihydrofolate reductase (DHFR)
[14] = substrate: Nc1nc(N)c2nc(CNc3ccc(C(=O)N[C@@H](CCC(=O)O)C(=O)O)cc3)cnc2n1; test: folyl-poly-glutamate synthetase activity measured as Vmax; rel means relative
[15] = substrate: CCC(Cc1coc2nc(N)cc(N)c12)c1ccc(C(=O)NC(CCC(=O)O)C(=O)O)cc1; test: folyl-poly-glutamate synthetase activity measured as Vmax
[16] = substrate: Nc1nc(N)c2nc(CNc3ccc(C(=O)N[C@@H](CCC(=O)O)C(=O)O)cc3)cnc2n1; test: (§1) folyl-poly-glutamate synthetase activity measured as Km
[17] = substrate: CCC(Cc1coc2nc(N)cc(N)c12)c1ccc(C(=O)NC(CCC(=O)O)C(=O)O)cc1; test: as §1

Thymidylate synthase (Escherichia coli, UniProt C3SWJ7), sequence (C3SWJ7 whole entry): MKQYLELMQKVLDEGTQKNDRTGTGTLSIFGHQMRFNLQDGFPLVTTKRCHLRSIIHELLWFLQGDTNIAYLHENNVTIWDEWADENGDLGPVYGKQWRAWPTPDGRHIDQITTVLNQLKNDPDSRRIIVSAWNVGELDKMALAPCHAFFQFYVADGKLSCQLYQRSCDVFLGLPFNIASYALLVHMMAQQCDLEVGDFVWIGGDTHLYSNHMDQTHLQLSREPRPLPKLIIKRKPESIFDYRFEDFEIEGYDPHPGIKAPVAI
Dihydrofolate reductase (Homo sapiens, UniProt P00374), sequence (P00374 whole entry): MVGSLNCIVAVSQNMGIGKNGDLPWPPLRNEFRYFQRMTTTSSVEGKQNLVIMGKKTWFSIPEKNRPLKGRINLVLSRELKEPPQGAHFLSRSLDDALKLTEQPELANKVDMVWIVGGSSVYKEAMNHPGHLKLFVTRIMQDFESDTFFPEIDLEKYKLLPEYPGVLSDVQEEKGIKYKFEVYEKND
Bifunctional dihydrofolate reductase-thymidylate synthase, sequence (Q07422 whole entry): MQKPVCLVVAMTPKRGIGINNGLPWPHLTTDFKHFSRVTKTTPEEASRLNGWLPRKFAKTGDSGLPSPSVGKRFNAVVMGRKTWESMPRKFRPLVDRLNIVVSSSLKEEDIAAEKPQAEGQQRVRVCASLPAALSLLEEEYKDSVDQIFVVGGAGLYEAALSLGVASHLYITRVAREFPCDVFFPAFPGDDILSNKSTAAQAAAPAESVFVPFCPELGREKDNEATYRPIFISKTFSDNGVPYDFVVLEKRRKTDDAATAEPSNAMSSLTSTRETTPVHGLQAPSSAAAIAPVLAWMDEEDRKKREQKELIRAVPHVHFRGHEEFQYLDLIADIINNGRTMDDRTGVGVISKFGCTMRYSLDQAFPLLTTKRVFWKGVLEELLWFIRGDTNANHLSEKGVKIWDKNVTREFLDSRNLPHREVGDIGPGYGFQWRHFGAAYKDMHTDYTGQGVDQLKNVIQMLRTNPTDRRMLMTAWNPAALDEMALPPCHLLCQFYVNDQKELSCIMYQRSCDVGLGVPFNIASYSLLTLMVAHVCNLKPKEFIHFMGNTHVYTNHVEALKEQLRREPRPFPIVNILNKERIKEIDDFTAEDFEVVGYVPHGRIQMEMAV
Dihydrofolate reductase (Escherichia coli, UniProt P0ABQ4), sequence (P0ABQ4 whole entry): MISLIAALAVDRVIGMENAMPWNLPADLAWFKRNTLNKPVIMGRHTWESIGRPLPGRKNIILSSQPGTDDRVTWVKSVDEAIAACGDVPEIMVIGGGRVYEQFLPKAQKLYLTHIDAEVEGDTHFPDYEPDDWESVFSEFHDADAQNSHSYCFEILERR
Thymidylate synthase (Homo sapiens, UniProt P04818), sequence (P04818 whole entry): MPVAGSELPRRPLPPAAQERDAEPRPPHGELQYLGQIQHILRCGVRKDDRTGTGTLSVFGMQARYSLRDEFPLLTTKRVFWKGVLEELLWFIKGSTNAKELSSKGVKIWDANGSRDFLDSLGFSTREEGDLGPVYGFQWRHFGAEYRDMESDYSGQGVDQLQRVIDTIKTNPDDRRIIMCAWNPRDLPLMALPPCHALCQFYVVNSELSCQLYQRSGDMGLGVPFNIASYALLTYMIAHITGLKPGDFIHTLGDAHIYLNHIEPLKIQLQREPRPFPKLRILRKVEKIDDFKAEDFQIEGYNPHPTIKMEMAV

CN(Cc1cnc2nc(N)nc(N)c2n1)c1ccc(C(=O)N[C@@H](CCC(=O)O)C(=O)O)cc1 [METHOTREXATE]
EC50 [1]: 15 nM | EC50 (R1 [2]): 1050 nM | EC50 (R2 [3]): 2600 nM

CCC(Cc1coc2nc(N)cc(N)c12)c1ccc(C(=O)NC(CCC(=O)O)C(=O)O)cc1 (configuration not stated)
GI50 (RPMI-8226): < 10 nM | EC50 (R2 [4]): 890 nM | IC50 (Dihydrofolate reductase [5]): 220 nM | GI50 (HL-60): < 10 nM | GI50 (MDA-MB-435): < 10 nM | GI50 (CCRF-CEM [6]): < 10 nM | GI50 (SW-620): < 10 nM | GI50 (OVCAR-5): < 10 nM | EC50 (CCRF-CEM [7]): 35.5 nM | GI50 (HCT-15): < 10 nM | EC50 [1]: 50 nM | GI50 (SF-539): < 10 nM | GI50 (UO-31): < 10 nM | GI50 (CAKI-1): < 10 nM | IC50 [8]: 1100 nM | EC50 (R1 [9]): 2100 nM | IC50 (Thymidylate synthase [10]): 220000 nM | GI50 (HT-29): 23.9 nM | GI50 (SF-268): < 10 nM | GI50 (U-251): 23.2 nM | GI50 (SK-MEL-5): 81.8 nM | IC50 (Thymidylate synthase [11]): 220000 nM | GI50 (TK-10): 340 nM | GI50 (LOX IMVI): 23.7 nM | GI50 (K562): < 10 nM | GI50 (MDA-N): < 10 nM | GI50 (MCF7): < 10 nM | GI50 (A549): 13.8 nM | GI50 [12]: < 10 nM | GI50 (NCI-H522): < 10 nM | GI50 (ACHN): < 10 nM | GI50 (SF-295): < 10 nM | GI50 (SR): < 10 nM | GI50 (NCI-H460): < 10 nM | IC50 (Dihydrofolate reductase [13]): 440 nM

B1: Folylpolyglutamate synthase, mitochondrial (Homo sapiens), Q05932 (protein)
chain: MSRARSHLRAALFLAAASARGITTQVAARRGLSAWPVPQEPSMEYQDAVRMLNTLQTNAGYLEQVKRQRGDPQTQLEAMELYLARSGLQVEDLDRLNIIHVTGTKGKGSTCAFTECILRSYGLKTGFFSSPHLVQVRERIRINGQPISPELFTKYFWRLYHRLEETKDGSCVSMPPYFRFLTLMAFHVFLQEKVDLAVVEVGIGGAYDCTNIIRKPVVCGVSSLGIDHTSLLGDTVEKIAWQKGGIFKQGVPAFTVLQPEGPLAVLRDRAQQISCPLYLCPMLEALEEGGPPLTLGLEGEHQRSNAALALQLAHCWLQRQDRHGAGEPKASRPGLLWQLPLAPVFQPTSHMRLGLRNTEWPGRTQVLRRGPLTWYLDGAHTASSAQACVRWFRQALQGRERPSGGPEVRVLLFNATGDRDPAALLKLLQPCQFDYAVFCPNLTEVSSTGNADQQNFTVTLDQVLLRCLEHQQHWNHLDEEQASPDLWSAPSPEPGGSASLLLAPHPPHTCSASSLVFSCISHALQWISQGRDPIFQPPSPPKGLLTHPVAHSGASILREAAAIHVLVTGSLHLVGGVLKLLEPALSQ
Vmax [14]: 1 rel | Vmax [15]: 0.37 rel | Km [16]: 3.2 µM | Km [17]: 1.1 µM
